Results from ChEMBL document CHEMBL6121040, “Synthesis and biological assessment of BUB1B inhibitors for the treatment of clear cell renal cell carcinoma” (Eur J Med Chem, 2025).

Experiments:
CAKI-1 [1] = assay: Cytotoxicity against human CAKI-1 cells assessed as cell viability at 10 uM incubated for 1 day by MTT assay relative to control; format: functional; settings: CAKI-1, 24 h, read-out: Activity
CAKI-1 [2] = assay: Cytotoxicity against human CAKI-1 cells assessed as reduction in cell viability incubated for 1 day by MTT assay; format: functional, cell-based; settings: CAKI-1, 24 h

## Cc1cnc(Nc2ccc(N3CCN(C(=O)N(C)C)CC3)cc2)nc1Nc1cccc(S(=O)(=O)NC(C)(C)C)c1
CAKI-1 [1]
  viability at 10 µM: 36.2%

## COc1cc(Nc2ncc(C)c(Nc3cccc(S(=O)(=O)NC(C)(C)C)c3)n2)cc(OC)c1
CAKI-1 [1]
  viability at 10 µM: 46.5%
CAKI-1 [2]
  IC50: 2.79 µM

## Cc1cnc(Nc2ccc(N3CCN(C(=O)Nc4ccccc4F)CC3)cc2)nc1Nc1cccc(S(=O)(=O)NC(C)(C)C)c1
CAKI-1 [1]
  viability at 10 µM: 46.7%

## C=CC(=O)N1CCN(c2ccc(Nc3ncc(C)c(Nc4cccc(S(=O)(=O)NC(C)(C)C)c4)n3)cc2)CC1
CAKI-1 [1]
  viability at 10 µM: 44.6%

## Cc1cnc(Nc2ccc(N3CCN(C(=O)Nc4ccccc4C(F)(F)F)CC3)cc2)nc1Nc1cccc(S(=O)(=O)NC(C)(C)C)c1
CAKI-1 [1]
  viability at 10 µM: 39.7%

## Cc1cnc(Nc2ccc(OCc3cccc(F)c3)c(Cl)c2)nc1Nc1cccc(S(=O)(=O)NC(C)(C)C)c1
CAKI-1 [1]
  viability at 10 µM: 96.1%

## COc1ccccc1NC(=O)N1CCN(c2ccc(Nc3ncc(C)c(Nc4cccc(S(=O)(=O)NC(C)(C)C)c4)n3)cc2)CC1
CAKI-1 [1]
  viability at 10 µM: 48.4%

## COc1cccc(Nc2ncc(C)c(Nc3cccc(S(=O)(=O)NC(C)(C)C)c3)n2)c1OC
CAKI-1 [1]
  viability at 10 µM: 78%

## Cc1cnc(Nc2ccc(Oc3ccc(Cl)cc3)nc2)nc1Nc1cccc(S(=O)(=O)NC(C)(C)C)c1
CAKI-1 [1]
  viability at 10 µM: 87.7%

## Cc1cnc(Nc2ccc(N3CCN(C(=O)N4CCCC4)CC3)cc2)nc1Nc1cccc(S(=O)(=O)NC(C)(C)C)c1
CAKI-1 [1]
  viability at 10 µM: 43.1%

## CNC(=O)N1CCN(c2ccc(Nc3ncc(C)c(Nc4cccc(S(=O)(=O)NC(C)(C)C)c4)n3)cc2)CC1
CAKI-1 [1]
  viability at 10 µM: 40.6%

## COc1ccc(S(=O)(=O)N2CCN(c3ccc(Nc4ncc(C)c(Nc5cccc(S(=O)(=O)NC(C)(C)C)c5)n4)cc3)CC2)cc1OC
CAKI-1 [1]
  viability at 10 µM: 73.8%

## Cc1ccc(Nc2ncc(C)c(Nc3cccc(S(=O)(=O)NC(C)(C)C)c3)n2)cc1S(N)(=O)=O
CAKI-1 [1]
  viability at 10 µM: 43.2%

## Cc1cnc(Nc2ccc(N3CCN(C)CC3)cc2)nc1Nc1cccc(S(=O)(=O)NC(C)(C)C)c1C
CAKI-1 [1]
  viability at 10 µM: 52.1%

## COc1cc(Nc2ncc(C)c(Nc3cccc(S(=O)(=O)NC4CCC4)c3)n2)cc(OC)c1OC
CAKI-1 [1]
  viability at 10 µM: 33%

## Cc1cnc(Nc2ccc(N3CCN(C(=O)c4cccc(F)c4)CC3)cc2)nc1Nc1cccc(S(=O)(=O)NC(C)(C)C)c1
CAKI-1 [1]
  viability at 10 µM: 37.3%

## Cc1cnc(Nc2ccccc2P(C)(C)=O)nc1Nc1cccc(S(=O)(=O)NC(C)(C)C)c1
CAKI-1 [1]
  viability at 10 µM: 84.4%

## COc1ccc(Nc2ncc(C)c(Nc3cccc(S(=O)(=O)NC(C)(C)C)c3)n2)cc1OC
CAKI-1 [1]
  viability at 10 µM: 36.6%

## COc1ncnc(NS(=O)(=O)c2ccc(Nc3ncc(C)c(Nc4cccc(S(=O)(=O)NC(C)(C)C)c4)n3)cc2)c1OC
CAKI-1 [1]
  viability at 10 µM: 104%

## Cc1ccc(Nc2ncc(C)c(Nc3cccc(S(=O)(=O)NC(C)(C)C)c3)n2)cc1Nc1nc(-c2cccnc2)cs1
CAKI-1 [1]
  viability at 10 µM: 43.5%
